# Laboratory results taken from patent US20040029908A1, “Tricyclo compounds, a process for their production and a pharmaceutical composition containing the same” (FUJISAWA PHARMACEUTICAL CO., LTD., priority 1984, published 2004).
# Assays:
# [1] = system: Plaque Forming Cell (PFC) Response in C3H/He mice; assay: in vivo Plaque Forming Cell (PFC) Response in Mice; set-up: species or system mouse
# Procedure: Male C3H/He mice 6 to 7 weeks of age were used for this 1 test. The mice were immunized on day 0 with 0.2 ml of 1 ×10^8 washed sheep erythrocytes intravenously. Spleens were removed on day 4 and spleen cells were incubated in the presence of SRBC as described by Cunningham and Szenberg (1968). Tests were evaluated by enumeration of direct generated plaque forming cells in the presence of complement. Suspensions of spleen cells were counted with a Microcellcounter CC-130 (Sysmex, Japan) and PFC results were calculated as PFC/10^6 recovered cells. The FR-900506 substance was administered orally for 4 days starting from the immunization.
# DTH to MBSA in BDF1 mice = assay: Delayed Type Hypersensitivity (DTH) Response to methylated bovine serum albumin (MBSA); format: in vivo, mouse
# Procedure: Female BDF1 mice were used for this test. The mice were sensitized with a subcutaneous injection of 0.1 ml emulsion consisting of equal volume of MBSA (2 mg/ml) and Freund's incomplete adjuvant(FIA). Seven days later, a 0.05 ml challenge dose of 0.4 mq/ml MIBSA in saline was injected into the plantar region of the right hind foot and 0.05 ml saline into the left hind foot to act as a control. Twenty four hours after challenge, both hind feet were measured with a dial gauge and the mean challenge in footpad thickness was measured. The FR-900506 substance was injected for 8 days orally, starting from the sensitization.
# [2] = system: Type II Collagen-Induced-Arthritis in female Lewis rats; assay: Type II Collagen-Induced-Arthritis in Rats; format: in vivo, rat; settings: observation period of 3 weeks
# Procedure: Collagen was dissolved in cold 0.01 M acetic acid at a concentration of 2 mg/ml. The solution was emulsified in an equal volume of incomplete Freund's adjuvant. A total volume of 0.5 ml of the cold emulsion was injected intradermally at several sites on the back and one or two sites into the tail of female Lewis rats. The FR-900506 substance was dissolved in olive oil and administered orally. Control rats immunized with same amount of type II collagen received oral administrations of olive oil alone. Incidences of the arthritis were observed.
# [3] = Solubility (physical and chemical properties); format: physicochemical
# [4] = system: Contact-Delayed Hypersensitivity in ICR mice; assay: Contact-Delayed Hypersensitivity in mice (picryl chloride); format: in vivo, mouse
# Procedure: Female ICR mice were used for this test. A tenth of a 7% (w/v) solution of picryl chloride in ethanol prepared at the time of the experiment was applied to the ventral surface of previously shaved animals. Such a sensitization was performed twice at intervals of 7 days. Seven days later, the thickness of the ears were measured with an ordinary engineer's micrometer and a 1% (w/v) solution of picryl chloride in olive oil was painted to both surfaces of each ear. The inflammation was evaluated 24 hours later by measuring the both of ears. The results were expressed as the average increase in thickness of the ears measured in units of 10 ^−3cm. The FR-900506 substance was injected for 14 days orally, starting from the first sensitization.
compound,measurement,setting,value
"C=CCC1/C=C(\C)CC(C)CC(OC)C2OC(O)(C(=O)C(=O)N3CCCCC3C(=O)OC(/C(C)=C/C3CCC(O)C(OC)C3)C(C)C(O)CC1=O)C(C)CC2OC (stereo not shown) [FR-900506, 17-Allyl-1,14-dihydroxy-12-[2-(4-hydroxy-3-methoxycyclohexyl)-1-methyvinyl]-23-25-dimethoxy-13,19,21,27-tetramethyl-11,28-dioxa-4-azatricyclo[22.3.1.0^4,9]octacos-18-ene-2,3,10,16-tetraone]",PFC/10^6 cells,[1]; 3.2 mg/kg orally for 4 days,3618 ± 476 PFC/10^6 cells
same,PFC/10^6 cells,[1]; 10 mg/kg orally for 4 days,1382 ± 243 PFC/10^6 cells
same,PFC/10^6 cells,[1]; 32 mg/kg orally for 4 days,657 ± 41 PFC/10^6 cells
same,PFC/10^6 cells,[1]; 100 mg/kg orally for 4 days,278 ± 41 PFC/10^6 cells
same,ED50,"[1]; Mus musculus, po, 96 h, orally for 4 days starting from the immunization",5.9 mg/kg
same,Footpad Swelling,DTH to MBSA in BDF1 mice; 10 mg/kg orally for 8 days,31.0 ± 4.4 × 10^−3 cm
same,Footpad Swelling,DTH to MBSA in BDF1 mice; 32 mg/kg orally for 8 days,20.8 ± 4.4 × 10^−3 cm
same,Footpad Swelling,DTH to MBSA in BDF1 mice; 100 mg/kg orally for 8 days,7.8 ± 1.6 × 10^−3 cm
same,ED50,"DTH to MBSA in BDF1 mice; Mus musculus, po, 192 h, orally for 8 days starting from the sensitization",18.4 mg/kg
same,Incidence of Arthritis,[2]; 3.2 mg/kg per day orally for 14 days,0/5
same,Suppression of arthritis induction (in words),[2]; daily treatment for 14 days,complete suppression of arthritis induction
same,Solubility,"[3]; hexane (n-hexane), petroleum ether",Sparingly Soluble
same,Solubility,"[3]; methanol, ethanol, acetone, ethyl acetate, chloroform, diethyl ether and benzene",Soluble
same,Solubility,[3]; water,Insoluble
same,Increase of ears at 24 hours after challenge,[4]; 32 mg/kg orally for 14 days,6.4 ± 1.6 × 10^−3 cm
same,Increase of ears at 24 hours after challenge,[4]; 100 mg/kg orally for 14 days,2.2 ± 1.5 × 10^−3 cm
